Measurements from article PMC6112376, “Comprehensive Analyses and Prioritization of Tox21 10K Chemicals Affecting Mitochondrial Function by in-Depth Mechanistic Studies” (Environmental Health Perspectives, 2018).
Where two headings read alike, the source gives them in different places.

Key:
[1] = system: mitochondrial respiratory chain complex III; type: biochemical, rat
[2] = system: mitochondrial respiratory chain complex V; type: biochemical, rat
[3] = system: Caenorhabditis elegans (Bristol N2); experiment: C. elegans larval development and growth assay
[4] = system: Caenorhabditis elegans strain PE255; experiment: In vivo C. elegans ATP status assay
[5] = system: p53 (p53-bla HCT-116 cells); experiment: p53 β-lactamase reporter gene assay; type: cell-based, human; settings: 16 h incubation, mean±SD of three experiments
[6] = system: mitochondrial respiratory chain complex IV; type: biochemical, rat
hNSC = experiment: MMP assay in human neural stem cells (hNSC); type: cell-based; settings: Homo sapiens, Neural stem cell, read-out: hNSC IC50 (MMP)
[7] = system: HeLa cells expressing YFP-Parkin; experiment: Parkin translocation assay; type: cell-based, human
[8] = biological target: T1, mitochondrial respiratory chain complex II (Rattus norvegicus, UniProt P21913+Q641Z9+Q6PCT8+Q920L2); experiment: Respiratory chain complex II activity; type: biochemical; settings: tested up to 100μM
T1 construct: Submitochondrial particles were prepared by subjecting the intact rat mitochondria, isolated as described above, to three successive freeze–thaw cycles; from tissue; host or cells: rat liver mitochondria (submitochondrial particles)
T1 sequence (Q920L2 35-656): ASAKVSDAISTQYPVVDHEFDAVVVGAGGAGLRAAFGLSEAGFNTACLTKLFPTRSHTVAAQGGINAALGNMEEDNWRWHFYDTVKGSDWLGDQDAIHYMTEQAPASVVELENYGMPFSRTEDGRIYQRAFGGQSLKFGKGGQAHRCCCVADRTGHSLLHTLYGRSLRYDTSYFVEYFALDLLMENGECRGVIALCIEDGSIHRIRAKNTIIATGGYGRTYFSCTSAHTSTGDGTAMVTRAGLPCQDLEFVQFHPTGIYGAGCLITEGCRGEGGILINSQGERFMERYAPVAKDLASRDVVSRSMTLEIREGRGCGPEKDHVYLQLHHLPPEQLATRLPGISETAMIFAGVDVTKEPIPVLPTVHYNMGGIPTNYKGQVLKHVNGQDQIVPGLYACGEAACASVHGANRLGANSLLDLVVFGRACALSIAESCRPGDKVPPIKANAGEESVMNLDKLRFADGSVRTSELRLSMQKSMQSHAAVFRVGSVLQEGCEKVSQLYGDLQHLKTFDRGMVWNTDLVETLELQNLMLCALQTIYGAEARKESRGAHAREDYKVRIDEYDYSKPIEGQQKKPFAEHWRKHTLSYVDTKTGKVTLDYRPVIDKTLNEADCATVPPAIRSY
T1 sequence (P21913 31-282): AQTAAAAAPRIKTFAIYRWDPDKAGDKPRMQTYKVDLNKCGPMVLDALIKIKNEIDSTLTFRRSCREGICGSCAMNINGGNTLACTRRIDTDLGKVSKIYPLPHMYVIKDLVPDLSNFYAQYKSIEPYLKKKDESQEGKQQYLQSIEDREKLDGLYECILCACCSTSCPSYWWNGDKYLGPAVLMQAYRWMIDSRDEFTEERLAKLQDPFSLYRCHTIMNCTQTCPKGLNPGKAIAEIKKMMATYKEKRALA
T1 sequence (Q641Z9 1-169): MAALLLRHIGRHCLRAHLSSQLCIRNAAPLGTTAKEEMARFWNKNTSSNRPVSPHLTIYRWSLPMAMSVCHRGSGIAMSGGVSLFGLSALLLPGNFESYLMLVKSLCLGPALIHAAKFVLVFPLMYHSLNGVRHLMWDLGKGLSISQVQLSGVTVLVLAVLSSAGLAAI
T1 sequence (Q6PCT8 57-159): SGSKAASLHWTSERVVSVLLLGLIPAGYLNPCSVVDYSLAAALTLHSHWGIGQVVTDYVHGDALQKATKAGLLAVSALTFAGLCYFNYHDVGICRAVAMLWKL

[9] = system: mitochondrial respiratory chain complex I; type: biochemical, rat
HepG2 cells [10] = experiment: Intracellular ATP content (cell viability) assay; type: cell-based, human; settings: Homo sapiens
rat primary hepatocytes [11] = experiment: MMP assay in rat primary hepatocytes; settings: for IC50: Rattus norvegicus, Hepatocyte
HepG2 cells [12] = experiment: ROS-Glo hydrogen peroxide (ROS) assay; type: cell-based, human; settings: Homo sapiens, read-out: ROS (HepG2) EC50
HepG2 cells [13] = experiment: cells; settings: Homo sapiens
HepG2 cells [14] = settings: cited from earlier work
[15] = system: Nrf2/ARE (ARE-bla HepG2 cells); experiment: ARE β-lactamase reporter gene assay; type: cell-based, human; settings: Homo sapiens, HepG2; 16 h incubation; mean±SD of three experiments; read-out: ARE (HepG2) EC50
rat primary hepatocytes [16] = system: rat primary hepatocytes
[17] = system: isolated rat liver mitochondria; experiment: Oxygen consumption, Clark-type oxygen electrode; type: biochemical
[18] = 1 h, read-out: Rat hepatocytes IC50 (MMP)
[19] = HepG2, 1 h, read-out: HepG2 IC50 Galactose (MMP)
[20] = HepG2, 1 h, read-out: HepG2 IC50 Glucose (MMP)

Structure (SMILES): NNc1nc(-c2ccc([N+](=O)[O-])cc2)cs1 [2-Hydrazino-4-(4-nitrophenyl)thiazole]
- Complex III % inhibition (activity call) [1]: Inactive
- Complex V % inhibition (activity call) [2]: Inactive
- EXT: mean difference in nematode size relative to plate controls ([3]; 0.5 µM): 0.08621
- EXT: mean difference in nematode size relative to plate controls ([3]; 1 µM): 0.08886
- EXT: mean difference in nematode size relative to plate controls ([3]; 5 µM): 0.126
- EXT: mean difference in nematode size relative to plate controls ([3]; 10 µM): 0.2572
- EXT: mean difference in nematode size relative to plate controls ([3]; 25 µM): 0.3181
- EXT: mean difference in nematode size relative to plate controls ([3]; 50 µM): 1.067
- EXT: mean difference in nematode size relative to plate controls ([3]; 75 µM): 1.594
- EXT: mean difference in nematode size relative to plate controls ([3]; 100 µM): 1.403
- minimal effective concentration ([3]; Caenorhabditis elegans, read-out: LEC EXT: lowest effect concentration for extinction, a measure of nematode size): 25 µM
- LUM: mean difference in luminescence (ATP content) relative to plate controls ([4]; 0.5 µM): -0.01284
- LUM: mean difference in luminescence (ATP content) relative to plate controls ([4]; 1 µM): -0.00711
- LUM: mean difference in luminescence (ATP content) relative to plate controls ([4]; 5 µM): 0.1253
- LUM: mean difference in luminescence (ATP content) relative to plate controls ([4]; 10 µM): -0.00409
- LUM: mean difference in luminescence (ATP content) relative to plate controls ([4]; 25 µM): 0.7526
- LUM: mean difference in luminescence (ATP content) relative to plate controls ([4]; 50 µM): 0.8462
- LUM: mean difference in luminescence (ATP content) relative to plate controls ([4]; 75 µM): 1.473
- LUM: mean difference in luminescence (ATP content) relative to plate controls ([4]; 100 µM): 1.784
- minimal effective concentration ([4]; Caenorhabditis elegans, read-out: LEC LUM: lowest effect concentration for luminescence, a measure of nematode ATP content): 50 µM
- p53 (HCT-116) EC50 [5]: Inactive
- Complex IV % inhibition (activity call) [6]: Inactive
- IC50 (hNSC; 1 h treatment, fresh re-sourced stocks, mean±SD of three experiments): 4.3 ± 1.42 µM
- Parkin recruitment ([7]; HeLa cells stably expressing YFP-Parkin, treated for 2 h): Active
- Complex II % inhibition (activity call) [8]: Inactive
- Complex I % inhibition ([9]; at 100μM): 21.6±7.1 at 100μM %
- IC50 (HepG2 cells [10]; HepG2, 5 mM glucose, 40 h treatment, mean±SD of three experiments, read-out: ATP (HepG2, glucose) IC50): 48.1 ± 24.3 µM
- IC50 (HepG2 cells [10]; HepG2, 10 mM galactose, 40 h treatment, mean±SD of three experiments, read-out: ATP (HepG2, galactose) IC50): 35.5 ± 4.54 µM
- Rat hepatocytes (efficacy) (MMP) (rat primary hepatocytes [11]; % of positive control, mean±SD of three experiments): −73.9±11.0%
- IC50 (rat primary hepatocytes [11]; [18]): 20.9 ± 11.3 µM
- IC50 (rat primary hepatocytes [11]; read-out: MMP assays IC50 (µM) Rat Hepatocytes): 7.9 ± 5.75 µM
- MMP assays efficacy (%) Rat Hepatocytes (rat primary hepatocytes [11]; rat hepatocytes, mean ± SD of three experiments): -89±18%
- EC50 (HepG2 cells [12]; HepG2, 2 h treatment, mean±SD of three experiments): 15.4 ± 16.6 µM
- IC50 (HepG2 cells [13]; [19]): 14.2 ± 2.56 µM
- IC50 (HepG2 cells [13]; [20]): 12.1 ± 1.39 µM
- IC50 (HepG2 cells [13]; HepG2, read-out: MMP assays IC50 (µM) HepG2): 1.26 µM
- Emax (HepG2 cells [13]; HepG2, read-out: MMP assays efficacy (%) HepG2): 97%
- MMP assays efficacy (%) qHTS-HepG2 (HepG2 cells [14]): -106±1%
- IC50 (HepG2 cells [14]; read-out: MMP assays IC50 (µM) qHTS-HepG2): 1.6 ± 0.29 µM
- EC50 [15]: 9.83 ± 3.79 µM

Structure (SMILES): CCCCCC[C@H]1C(=O)O[C@H](C)[C@H](NC(=O)c2cccc(NC=O)c2O)C(=O)O[C@@H](C)[C@@H]1OC(=O)CC(C)C [Antimycin A, reference compound]
- inhibitory effect on Complex III at (concentration) [1]: 0.032 µM
- Complex III % inhibition ([1]; at 0.032μM): 71.1±2.91 at 0.032μM %
- Complex V % inhibition (activity call) [2]: Inactive
- Rat hepatocytes (efficacy) (MMP) (rat primary hepatocytes [16]): 2.65±1.08 ( −94.9±3.37 ) %
- EC50 ([5]; Homo sapiens): 0.31 ± 0.04 µM
- Complex IV % inhibition (activity call) [6]: Inactive
- IC50 (hNSC; 1 h): 2.91 µM
- Parkin recruitment [7]: Active
- Parkin translocation into mitochondria (in words) ([7]; 3 h): significantly increased Parkin translocation into mitochondria
- Complex II % inhibition (activity call) [8]: Inactive
- Complex I % inhibition (activity call) [9]: Inactive
- IC50 (HepG2 cells [10]; HepG2, 40 h, read-out: ATP (HepG2, galactose) IC50): 0.05 µM
- IC50 (HepG2 cells [10]; HepG2, 40 h, read-out: ATP (HepG2, glucose) IC50): 0.02 µM
- IC50 (rat primary hepatocytes [11]; [18]): 2.65 µM
- EC50 (HepG2 cells [12]; HepG2, 2 h): 6.83 µM
- Potential Mechanism [17]: Inhibitor
- effect on mitochondrial respiration (in words) [17]: significantly inhibited both glutamate/malate-driven respiration and succinate-driven respiration
- I-ADP, % of control (O2 consumption rate) ([17]; 0.00128 µM): 101 (37.5) % of control
- I-sub, % of control (O2 consumption rate) ([17]; 0.00128 µM): 104 (11.2) % of control
- II-ADP, % of control (O2 consumption rate) ([17]; 0.00128 µM): 102 (64.0) % of control
- II-sub, % of control (O2 consumption rate) ([17]; 0.00128 µM): 105 (19.5) % of control
- I-ADP, % of control (O2 consumption rate) ([17]; 0.0064 µM): 90 (33.5) % of control
- I-sub, % of control (O2 consumption rate) ([17]; 0.0064 µM): 93 (10.0) % of control
- II-ADP, % of control (O2 consumption rate) ([17]; 0.0064 µM): 83 (52.2) % of control
- II-sub, % of control (O2 consumption rate) ([17]; 0.0064 µM): 92 (17.1) % of control
- I-ADP, % of control (O2 consumption rate) ([17]; 0.032 µM): 59 (22.1) % of control
- I-sub, % of control (O2 consumption rate) ([17]; 0.032 µM): 86 (9.3) % of control
- II-ADP, % of control (O2 consumption rate) ([17]; 0.032 µM): 39 (24.5) % of control
- II-sub, % of control (O2 consumption rate) ([17]; 0.032 µM): 67 (12.4) % of control
- I-ADP, % of control (O2 consumption rate) ([17]; 0.16 µM): 17 (6.4) % of control
- I-sub, % of control (O2 consumption rate) ([17]; 0.16 µM): 53 (5.7) % of control
- II-ADP, % of control (O2 consumption rate) ([17]; 0.16 µM): 10 (6.4) % of control
- II-sub, % of control (O2 consumption rate) ([17]; 0.16 µM): 36 (6.7) % of control
- I-ADP, % of control (O2 consumption rate) ([17]; 0.8 µM): 16 (6.1) % of control
- I-sub, % of control (O2 consumption rate) ([17]; 0.8 µM): 63 (6.8) % of control
- II-ADP, % of control (O2 consumption rate) ([17]; 0.8 µM): 10 (6.4) % of control
- II-sub, % of control (O2 consumption rate) ([17]; 0.8 µM): 30 (5.6) % of control
- I-ADP, % of control (O2 consumption rate) ([17]; 4 µM): 13 (4.8) % of control
- I-sub, % of control (O2 consumption rate) ([17]; 4 µM): 51 (5.5) % of control
- II-ADP, % of control (O2 consumption rate) ([17]; 4 µM): 12 (7.5) % of control
- II-sub, % of control (O2 consumption rate) ([17]; 4 µM): 31 (5.7) % of control
- I-ADP, % of control (O2 consumption rate) ([17]; 20 µM): 15 (5.7) % of control
- I-sub, % of control (O2 consumption rate) ([17]; 20 µM): 54 (5.8) % of control
- II-ADP, % of control (O2 consumption rate) ([17]; 20 µM): 9 (5.8) % of control
- II-sub, % of control (O2 consumption rate) ([17]; 20 µM): 32 (6.0) % of control
- I-ADP, % of control (O2 consumption rate) ([17]; 100 µM): 9 (4.8) % of control
- I-sub, % of control (O2 consumption rate) ([17]; 100 µM): 26 (5.6) % of control
- II-ADP, % of control (O2 consumption rate) ([17]; 100 µM): 7 (4.0) % of control
- II-sub, % of control (O2 consumption rate) ([17]; 100 µM): 13 (4.6) % of control
- IC50 (HepG2 cells [13]; [19]): 0.25 µM
- IC50 (HepG2 cells [13]; [20]): 2.79 µM
- EC50 [15]: 0.47 ± 0.42 µM
